Reference: patent US20090053751A1, “Chemiluminescent Method and Device for Evaluating the In Vivo Functional State of Phagocytes” (priority 2005, published 2009)

System: phagocytes
Assay: Luminol-amplified chemiluminescence (CL) kinetics of zymosan-stimulated diluted whole blood
Format: cell-based, human
Description: Zymosan-A (Sigma Chemical Co.) was used as a phagocyte-stimulating agent. It was opsonized for 30 min at 37° C. in sample serum (20 mg/mL) and washed twice in 0.9% NaCl. The zymosan suspension in Krebs-Ringer phosphate medium (KRP) was prepared immediately prior to use. KRP was composed of 119 mmol/L NaCl, 4.75 mmol/L KCl, 0.420 mmol/L CaCl2, 1.19 mmol/L MgSO4.7H2O, 16.6 mmol/L sodium phosphate buffer, pH 7.4 and 5.56 mmol/L glucose (De Sole et al., 1983). Luminol (Sigma Chemical Co.) was used to amplify the chemiluminescence activity. A luminol stock solution (10 mmol/L in dimethyl sulfoxide) was stored in a dark place at room temperature and diluted 1:10 (v/v) with KRP just before use. In all experiments, the final concentration of luminol was 100 μmol/L. In some experiments formylmethionyl-leucyl-phenylalanine (fMLP—Sigma Chemical Co.) was used for priming (5 nM) of CL emitting cells. All reagents used were of analytical grade and the water was glass-distilled.
Diluted whole blood (1:100 v/v final dilution) was used to avoid artifacts due to the isolation of PMNs. Peripheral venous blood from human adults was collected in heparinized tubes (20 U/mL). Samples with a total volume of 200 μL contained diluted whole fresh blood, luminol and zymosan in KRP. […] After diluted blood was added, the sample content was mixed and CL measured. […]

Row | Structure (SMILES) | relative contribution of extracellularly and intracellularly produced ROS (derived kinetic parameters) (diluted whole blood preincubated at 37° C. for 5 minutes with 3 nmol/liter fMLP, FIG. 2) | phagocytosis-related parts of the CL response (diluted whole blood preincubated at 37° C. for 5 minutes with 1.5 mmol/liter of aspirin, FIG. 6A)
1 | CSCC[C@H](NC=O)C(=O)N[C@@H](CC(C)C)C(=O)N[C@@H](Cc1ccccc1)C(=O)O [fMLP, N-formylmethionyl leucyl phenylalanine] | more significant for the extracellular ROS production | –
2 | CC(=O)Oc1ccccc1C(=O)O [aspirin] | – | significant decrease
